Results as given in US5622944A, “Testosterone prodrugs for improved drug delivery” (Affymax Technologies N.V., priority 1995, dated 1997).
Counter-ions that a name gives are not always drawn.

Tests used:
in vitro [1] = assay type: cell-based, human; conditions: human, dermal fibroblasts, MTT; for CC50 at 2 h: IC50 2 h (cytotoxicity), 2 h incubation; for CC50 at 16 h: IC50 16 h (cytotoxicity), 16 h incubation
Experimental: As discussed above, the chemical modifier, when present in the subject in its free or released form, and in appropriately administered amounts, should preferably be non-toxic. Additionally, any further in vivo degradation products of the chemical modifier should be non-toxic, as well. Table 2 provides in vitro relative cytotoxicity data for a number of testosterone/chemical modifier complexes, prepared in accordance with the invention. The cytotoxicity assessment was carried out by examining the viability of human dermal fibroblasts in the presence of a number of testosterone/chemical modifier complexes in accordance with the present invention. Details of the experimental protocol are summarized in Example 27.
The viability of human dermal fibroblasts in the presence of the 17-hydroxy sterol/chemical modifier compounds was assayed using MTT (3-[4,5-dimethylthiazol-2-yl]-2,5-diphenyltetrazolium bromide) reduction to formazan by mitochondrial enzymes as an indicator of cytotoxicity (Swisher, et al.). Confluent fibroblast cells were incubated for 2 or 16 hours in the presence of increasing concentrations of drug complex. At the end of the incubation period, medium was replaced for 4 hours by medium containing the tetrazolium salt, MTT. Metabolism of MTT to a blue formazan was quantitated by spectrophotometry at 540 nm.

[2] = Water solubility (H2O sol); conditions: for solubility: H2O sol
[3] = assay type: in vitro ADME, mouse; conditions: murine skin, active cells (ETm), 10 mM donor, 100 uA/cm^2, 6 h, 32° C.
Experimental: In vitro electrotransport of testosterone/chemical modifier complexes across hairless mouse skin was evaluated as described in Example 28. The experiments were conducted using modified Valia-Chien cells having 1.0 ml donor and 2.5 ml receptor cells. Anodic transport was carried out using a silver wire-based salt bridge in the donor compartment and a silver chloride cathode in the receptor. Cathodic transport was effected by reversing the electrode configuration. The cells were connected in series and a constant current and temperature were supplied to each cell.
After a predetermined period of time (6 h), aliquots were removed from the receiver phase for immediate analysis by HPLC to determine cumulative flux.
The electrotransport of testosterone/chemical modifier complexes was achieved using modified Valia-Chien cells (1.0 ml donor and 2.5 ml receptor cells). Full thickness, hairless mouse skin (Charles River Labs, Wilmington, Mass.) was soaked for one hour in phosphate buffered saline (PBS, pH=7.4) before placing between each compartment (dermal side of skin facing toward receptor). One passive (P1:data) and two or more (ETm :data) active cells were used to screen each compound.
A 10 mM (1 ml) aqueous solution of testosterone drug/prodrug was placed in the donor (unstirred) compartment and the receptor (stirred) was filled with 2.5 ml of PBS. In order to check for egress due to e.g. damaged skin, a zero hour sample of receptor ([…]) was taken one half hour after the drug solution was placed in the donor compartment. Replacement fluid of equal sample volume was added to the receptor compartment immediately after samples were taken.
Anodic electrotransport was achieved using a silver wire (immersed in a polyvinylalcohol-based salt bridge to minimize junction potential) in the donor compartment and a AgCl cathode in the receptor. […] The electrotransport cells were connected in series and constant current (100 uA/cm^2, […] for a skin area of 0.64 cm^2) and temperature (32° C.) were supplied to each cell. After six hours of active/passive transport, aliquots (200 ul) of the receptor were sampled and immediately analyzed by HPLC.
A standard plot of peak area and concentration for each compound was constructed using HPLC. The peak areas of the samples were determined and the concentrations calculated using the standard data. Cumulative flux was calculated using Quickbasic and reported in nmol/cm^2 /hr.

in vitro [4] = assay type: in vitro ADME; conditions: 37° C.; for half-life: human, serum
Experimental: The hydrolytic activity of the sterol prodrug may be evaluated by studies of the chemical or enzymatic conversion of the prodrug to the unmodified parent compound, as described in Example 26.
Generally, the sterol/chemical modifier complex is dissolved in a minimum amount of a suitable solvent, such as ethanol, and the resulting solution is added to a sample of human serum. Following incubation, aliquots are then removed at various time points and analyzed to determine the extent of hydrolysis. Table I herein lists the representative serum half-lives of a number of testosterone prodrugs according to the present invention.
The rates of conversion are readily determined, for example by spectrophotometric methods or by gas-liquid or high performance liquid chromatography. Half-lives and other kinetic parameters may then be calculated using standard techniques.
Determination of Testosterone Prodrug Hydrolysis in Serum
Stock solutions (6 mM) of the testosterone prodrugs were prepared in ethanol (dissolution was accomplished by vortexing, sonication, or warming at 37° C., as needed). If required for dissolution, one drop of a co-solvent such as dimethylsulfoxide, dimethylformamide or methanol was added. (Acetonitrile is undesirable because it deactivates the serum enzymes).
HPLC separation methods were established for each study by dilution of the above stock solutions (6 μl) in acetonitrile (1 ml) to form 36 μM solutions. Samples (10 μl) were injected onto a Nucleosil 5C8 column (250×4 mm ID) fitted with an additional guard column (11×4 mm ID) and eluted with a mobile phase of approximately 65% HPLC grade water and 35% trifluoroacetic acid in acetonitrile (0.1% TFA in acetonitrile). Exact proportions of the mobile phase eluents were adjusted in each case to give optimum separation and run times.
Freshly defrosted human serum (3 ml, Sigma) was warmed at 37° C. for five minutes and then the testosterone prodrug stock solution (60 μl) was added with vortexing. […] The aliquots were added to 800 μl of 2% zinc sulfate solution in a 1.5 ml disposable microcentrifuge tube, vortexed immediately and centrifuged at 14,000 RPM for 3 minutes. The supernatants (10 μl) were injected onto the HPLC and peak areas used to determine the percent of parent drug formed or percent of prodrug remaining. Serum blanks were prepared similarly by addition of serum to the zinc sulfate solution, followed by centrifugation. Initial (time=0) samples were prepared by adding serum to the zinc sulfate solution, followed by addition of the complex and separation by centrifugation. The time=0 samples, as well as the original stock solutions, were also used to assess the stability of the complex in the absence of enzyme. Half-lives were determined using the following equation : […]
and plotting time (x ordinate) versus the natural logarithm of percent remaining prodrug (y ordinate) to obtain the slope (m) and the y intercept (b).

[5] = footnote 1: prodrug remaining, no testosterone formed

C[C@]12CC[C@H]3[C@@H](CCC4=CC(=O)CC[C@@]43C)[C@@H]1CC[C@@H]2O [Code 1.0, 17β-hydroxyandrost-4-en-3-one, reference compound]
Degradation (Degradation (%/d)): 0 %/d | CC50 at 2 h (in vitro [1]): > 1000 µM | CC50 at 16 h (in vitro [1]): 423 µM | H2O sol [2]: 0.0 mg/mL

CCCCCCCCCCCCCCCC(=O)O[C@H](CC(=O)O[C@H]1CC[C@H]2[C@@H]3CCC4=CC(=O)CC[C@]4(C)[C@H]3CC[C@]12C)C[N+](C)(C)C [Code 1.1, testosterone-17β-(O-palmitoyl-L-carnitinate), chloride salt]
Degradation (Degradation (%/d)): 0 %/d | CC50 at 2 h (in vitro [1]): < 10 µM | CC50 at 16 h (in vitro [1]): < 10 µM | Flux, active electrotransport (ET) [3]: 0 nmol/cm^2 /hr | solubility [2]: 26 mg/mL

CC(=O)OC(CC(=O)O[C@H]1CC[C@H]2[C@@H]3CCC4=CC(=O)CC[C@]4(C)[C@H]3CC[C@]12C)C[N+](C)(C)C (stereo partly shown) [Code 1.2]
Degradation (Degradation (%/d)): 0 %/d | CC50 at 2 h (in vitro [1]): 91.6 µM | CC50 at 16 h (in vitro [1]): 34.4 µM | half-life (in vitro [4]; HPLC): 5760 min | Flux, active electrotransport (ET) [3]: 7.3 ± 5.8 nmol/cm^2 /hr | solubility [2]: 22 mg/mL

C[C@]12CC[C@H]3[C@@H](CCC4=CC(=O)CC[C@@]43C)[C@@H]1CC[C@@H]2OC(=O)OCOC(=O)CNC(=O)OCOC(=O)CCCCC[N+](C)(C)C [Code 1.8]
half-life (in vitro [4]; HPLC): 4 min

COC(=O)[C@H](COC(=O)O[C@H]1CC[C@H]2[C@@H]3CCC4=CC(=O)CC[C@]4(C)[C@H]3CC[C@]12C)[N+](C)(C)C [Code 1.9, testosterone-17β-(N,N,N-trimethyl-L-serine methyl ester) carbonate, tetrafluoroborate salt]
half-life (in vitro [4]; HPLC): ~0.075 min

COC(=O)[C@H](COC(=O)O[C@H]1CC[C@H]2[C@@H]3CCC4=CC(=O)CC[C@]4(C)[C@H]3CC[C@]12C)[N+](C)(C)C [Code 2.0, testosterone-17β-(N,N,N-trimethyl-L-serine methyl ester) carbonate, bromide salt]
Serum half-life (in vitro [4]; human serum, HPLC): 5 s

C[C@]12CC[C@H]3[C@@H](CCC4=CC(=O)CC[C@@]43C)[C@@H]1CC[C@@H]2OC(=O)OCOC(=O)CC[N+](C)(C)C [Code 2.1, testosterone-17β-(N,N,N-trimethyl-β-alaninyloxymethyl)carbonate,iodide salt]
half-life (in vitro [4]; HPLC): 0.633 min

C[C@]12CC[C@H]3[C@@H](CCC4=CC(=O)CC[C@@]43C)[C@@H]1CC[C@@H]2OC(=O)C[N+](C)(C)C [Code 2.2, testosterone-17β-betainoyl ester, bromide salt]
Degradation (Degradation (%/d)): 0 %/d | CC50 at 2 h (in vitro [1]): 2300 µM | CC50 at 16 h (in vitro [1]): 650 µM | half-life (in vitro [4]; HPLC): 840 min | Flux, active electrotransport (ET) [3]: 7.9 ± 4.1 nmol/cm^2 /hr | solubility [2]: 10 mg/mL

C[C@]12CC[C@H]3[C@@H](CCC4=CC(=O)CC[C@@]43C)[C@@H]1CC[C@@H]2OC(=O)CCC[N+](C)(C)C [Code 2.3]
Degradation (Degradation (%/d)): 0 %/d | CC50 at 2 h (in vitro [1]): 653 µM | CC50 at 16 h (in vitro [1]): 172 µM | half-life (in vitro [4]; [5]): ~900 min | Flux, active electrotransport (ET) [3]: 2.0 ± 0.8 nmol/cm^2 /hr | solubility [2]: 20 mg/mL

C[C@]12CC[C@H]3[C@@H](CCC4=CC(=O)CC[C@@]43C)[C@@H]1CC[C@@H]2OC(=O)c1cccnc1 [Code 2.7, Testosterone-17β-nicotinate]
CC50 at 2 h (in vitro [1]): > 1000 µM | CC50 at 16 h (in vitro [1]): > 1000 µM | half-life (in vitro [4]; HPLC): ~50400 min | H2O sol [2]: 0.0 mg/mL

CN(C)CCCC(=O)O[C@H]1CC[C@H]2[C@@H]3CCC4=CC(=O)CC[C@]4(C)[C@H]3CC[C@]12C [Code 3.0]
half-life (in vitro [4]; footnote 2: prodrug remaining, ~50% testosterone and ~50% unknown formed): 6340 min

CN(C)CCCC(=O)O[C@H]1CC[C@H]2[C@@H]3CCC4=CC(=O)CC[C@]4(C)[C@H]3CC[C@]12C [Code 3.1, testosterone-17β-[4-N,N-dimethylaminobutyrate], hydrochloride salt]
Degradation (Degradation (%/d)): 0 %/d | CC50 at 2 h (in vitro [1]): 255 µM | CC50 at 16 h (in vitro [1]): 145 µM | Flux, active electrotransport (ET) [3]: 0.7 ± 0.2 nmol/cm^2 /hr | solubility [2]: 22 mg/mL

CN(C)CCc1ccc(OC(=O)O[C@H]2CC[C@H]3[C@@H]4CCC5=CC(=O)CC[C@]5(C)[C@H]4CC[C@]23C)cc1 [Code 3.3, testosterone-17β-hordenine carbonate]
half-life (in vitro [4]; HPLC): 492 min

COC(=O)[C@H](COC(=O)O[C@H]1CC[C@H]2[C@@H]3CCC4=CC(=O)CC[C@]4(C)[C@H]3CC[C@]12C)N(C)C [Code 3.5]
half-life (in vitro [4]; HPLC): 47 min

C[C@]12CC[C@H]3[C@@H](CCC4=CC(=O)CC[C@@]43C)[C@@H]1CC[C@@H]2OC(=O)c1ccccn1 [Code 3.9, testosterone-17β-picolinate, hydrochloride salt]
half-life (in vitro [4]; HPLC): 732 min

C[n+]1ccccc1C(=O)O[C@H]1CC[C@H]2[C@@H]3CCC4=CC(=O)CC[C@]4(C)[C@H]3CC[C@]12C [Code 4.0]
CC50 at 2 h (in vitro [1]): 330 µM | CC50 at 16 h (in vitro [1]): 41.1 µM | half-life (in vitro [4]; HSO4^- salt): 65 min | half-life (in vitro [4]; iodide (I--) salt): 70 min | solubility [2]: 0.9 mg/mL

C[C@]12CC[C@H]3[C@@H](CCC4=CC(=O)CC[C@@]43C)[C@@H]1CC[C@@H]2OC(=O)CCC(=O)NCCS(=O)(=O)O [Code 4.2, testosterone-17β-[taurinesuccinamide ester], triethvlammonium salt]
half-life (in vitro [4]; HPLC): 1440 min | Flux, active electrotransport (ET) [3]: 2.8 ± 3.7 nmol/cm^2 /hr

C[C@]12CC[C@H]3[C@@H](CC=C4C=C(OC(=O)CCC[N+](C)(C)C)CC[C@@]43C)[C@@H]1CC[C@@H]2OC(=O)CCC[N+](C)(C)C [Code 4.3, testosterone-3-enol, 17β-ol bis[4-(N,N,N-trimethylammonio)butyrate], dibromide salt]
half-life (in vitro [4]; footnote 3: prodrug remaining, 60% [2.3] formed, no other products seen): 468 min | Flux, active electrotransport (ET) [3]: 1.0 ± 0.6 nmol/cm^2 /hr

C[C@]12CC[C@H]3[C@@H](CC=C4C=C(OC(=O)CC[N+](C)(C)C)CC[C@@]43C)[C@@H]1CC[C@@H]2OC(=O)OCC[N+](C)(C)C [Code 4.4, testosterone-3-enol, 17β-ol 3-(N,N,N-trimethyl-β-alanine ester) 17-(choline carbonate), dibromide salt]
half-life (in vitro [4]; [5]): 2.3 min | Flux, active electrotransport (ET) [3]: 0.2 ± 0.0 nmol/cm^2 /hr
